This is an account of results in the supplement of paper PMC11208160.

The nature of this data set: recombinant barcode read abundance after kanamycin selection (control-corrected) (log10(CPM+1)); higher = more efficient recombination; sequences stand for … in AGTGCAGAGAAAATCGGCCAGTTTTCTCTGCCTGCAGTCCGCATGCCGT…AGATTTATGCAGCGGACTGCCTTTCTCCCAAAGTGATAAACCGGACAGTATCATGGACCGGTTTTCCCGGTAATCCGTATTTGCAAGGTTGGTTTCACT; site = the 11-nt target. The method in brief: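 For this pooled screen, each oligo contained a promoter, a target, a barcode and the J23119-driven first 104 bases of the bridge RNA. Gibson cloning placed it into a vector supplying the remaining 73 bp and a T7-inducible recombinase, and the pool was co-electroporated into E. coli with a donor plasmid. Recombination efficiency is derived from barcode counts per million at recombinant junctions after averaging and control correction, and is expressed on a log scale as log10(CPM+1), with selection on chloramphenicol/ampicillin/kanamycin plus 0.1 mM IPTG against a chloramphenicol/ampicillin LB agar control.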
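Note: IS621 recombinase and bridge RNA in Escherichia coli cells.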

As to “CATGAGACTTGGGTTCTAACCTGTTGCGG (site CATGAGACTCC)”, the “recombinant barcode read abundance (log10)” value worked out at 2.18.
Regarding “CATGAGACTTGGGTTCTAACCTGTTGCGG (site GCGATCCCTAA)”, the “recombinant barcode read abundance (log10)” value worked out at 0.0802.
The result for “CATGAGCCTTGGGTTCTAACCTGTTGCCT (site CATAAGCCTAG)” reads 0.694; that for “CATGAGCCTTGGGTTCTAACCTGTTGCCT (site CATCAGCCTAG)”, 0.0278; that for “CATGAGCCTTGGGTTCTAACCTGTTGCCT (site CATGAGCCTAG)”, 2.23.
Regarding “CATGAGCCTTGGGTTCTAACCTGTTGCCT (site CATTAGCCTAG)”, the “recombinant barcode read abundance (log10)” value worked out at 0.196.
In the case of “CATGATTCTTGGGTTCTAACCTGTTGCCT (site CATAATTCTAG)”, the “recombinant barcode read abundance (log10)” value is 0.0239.
As to “CATGATTCTTGGGTTCTAACCTGTTGCCT (site CATCATTCTAG)”, the “recombinant barcode read abundance (log10)” value was 0.087.
The result for “CATGATTCTTGGGTTCTAACCTGTTGCCT (site CATGATTCTAG)” reads 1.05; that for “CATGATTCTTGGGTTCTAACCTGTTGCCT (site CATTATTCTAG)”, 0.0435; that for “CATGCTCCTTGGGTTCTAACCTGTTGCAT (site CATGCTCCTAG)”, 0.168.
The result for “CATGCTCCTTGGGTTCTAACCTGTTGCAT (site CATGCTCCTAT)” reads 0.194; that for “CATGCTCCTTGGGTTCTAACCTGTTGCCT (site CATGCTCCTAG)”, 0.353; that for “CATGCTCCTTGGGTTCTAACCTGTTGCCT (site CATGCTCCTAT)”, 0.512.
In the case of “CATTAGCCTTGGGTTCTAACCTGTTGCCT (site CATAAGCCTAG)”, the “recombinant barcode read abundance (log10)” value worked out at 0.0881.
As for “CATTAGCCTTGGGTTCTAACCTGTTGCCT (site CATCAGCCTAG)”, the figure is 0.26.
As for “CATTAGCCTTGGGTTCTAACCTGTTGCCT (site CATGAGCCTAG)”, the figure is 0.0107; as for “CATTAGCCTTGGGTTCTAACCTGTTGCCT (site CATTAGCCTAG)”, 0.583; as for “CATTAGTCTTGGGTTCTAACCTGTTGCCT (site CATTAGTCTAG)”, 1.33.
Take “CATTAGTCTTGGGTTCTAACCTGTTGCCT (site TATTAATCTAG)”: the “recombinant barcode read abundance (log10)” value amounted to 0.0986.
As to “CATTATCCTTGGGTTCTAACCTGTTGCCT (site CAATATCCTAG)”, the “recombinant barcode read abundance (log10)” value worked out at 0.0661.
The result for “CATTATCCTTGGGTTCTAACCTGTTGCCT (site CACTATCCTAG)” reads 0.161; that for “CATTATCCTTGGGTTCTAACCTGTTGCCT (site CAGTATCCTAG)”, 0.0928.
As for “CATTATCCTTGGGTTCTAACCTGTTGCCT (site CATTATCCTAG)”, the figure is 0.136; as for “CATTCAACTTGGGTTCTAACCTGTTGCCG (site CATTCAACTAG)”, 0.0546.
On to “CATTCAACTTGGGTTCTAACCTGTTGCCG (site CATTCAACTCG)”, for which the “recombinant barcode read abundance (log10)” value was 0.0716.
As for “CCAAGATCTTGGGTTCTAACCTGTTGCCT (site CAAAGATCTAG)”, the “recombinant barcode read abundance (log10)” value was determined as 0.178.
The result for “CCAAGATCTTGGGTTCTAACCTGTTGCCT (site CCAAGATCTAG)” reads 0.556; that for “CCAAGATCTTGGGTTCTAACCTGTTGCCT (site CGAAGATCTAG)”, 0.201.
The result for “CCAAGATCTTGGGTTCTAACCTGTTGCCT (site CTAAGATCTAG)” reads 0.46; that for “CCAAGCGCTTGGGTTCTAACCTGTTGCCT (site CCAAGCACTAG)”, 0.589; that for “CCAAGCGCTTGGGTTCTAACCTGTTGCCT (site CCAAGCCCTAG)”, 0.0283.
As for “CCAAGCGCTTGGGTTCTAACCTGTTGCCT (site CCAAGCGCTAG)”, the “recombinant barcode read abundance (log10)” value came out at 0.769.
For the sequence “CCAAGCGCTTGGGTTCTAACCTGTTGCCT (site CCAAGCTCTAG)”, the “recombinant barcode read abundance (log10)” value is 0.209.
In the case of “CCAAGGGCTTGGGTTCTAACCTGTTGCAG (site CCAAGGGCTCA)”, the “recombinant barcode read abundance (log10)” value is 1.09.
“CCAAGGGCTTGGGTTCTAACCTGTTGCAG (site CCAAGGGCTCC)”: the “recombinant barcode read abundance (log10)” value stood at 0.546.
For “CCAAGGGCTTGGGTTCTAACCTGTTGCAG (site CCAAGGGCTCG)”, the “recombinant barcode read abundance (log10)” value was 0.537.
As for “CCAAGGGCTTGGGTTCTAACCTGTTGCAG (site CCAAGGGCTCT)”, the “recombinant barcode read abundance (log10)” value was found to be 2.13.
Turning to “CCAAGGGCTTGGGTTCTAACCTGTTGCCG (site CCAAGGGCTCA)”, the “recombinant barcode read abundance (log10)” value is 0.0491.
On to “CCAAGGGCTTGGGTTCTAACCTGTTGCCG (site CCAAGGGCTCC)”, for which the “recombinant barcode read abundance (log10)” value came to 0.211.
Regarding “CCAAGGGCTTGGGTTCTAACCTGTTGCCG (site CCAAGGGCTCG)”, the “recombinant barcode read abundance (log10)” value stood at 0.143.
Turning to “CCAAGGGCTTGGGTTCTAACCTGTTGCCG (site CCAAGGGCTCT)”, the “recombinant barcode read abundance (log10)” value is 0.33.
For the sequence “CCAAGTCCTTGGGTTCTAACCTGTTGCCA (site CCAAGTCCTTG)”, the “recombinant barcode read abundance (log10)” value was 0.0554.
For the sequence “CCAAGTCCTTGGGTTCTAACCTGTTGCCA (site GTTCAGACTAA)”, the “recombinant barcode read abundance (log10)” value was 0.031.
As for “CCAATTGCTTGGGTTCTAACCTGTTGCCT (site CCAATTGCTAG)”, the figure is 0.108.
Turning to “CCAATTGCTTGGGTTCTAACCTGTTGCCT (site CTAATTGCTAG)”, the “recombinant barcode read abundance (log10)” value came to 0.0541.
The result for “CCACTCCCTTGGGTTCTAACCTGTTGCCT (site CCACTACCTAG)” reads 0.166.
The result for “CCACTCCCTTGGGTTCTAACCTGTTGCCT (site CCACTCCCTAG)” reads 0.0427; that for “CCACTCCCTTGGGTTCTAACCTGTTGCCT (site CCACTGCCTAG)”, 0.0666; that for “CCACTCCCTTGGGTTCTAACCTGTTGCCT (site CCACTTCCTAG)”, 0.279.
The result for “CCACTTCCTTGGGTTCTAACCTGTTGCCT (site CCACTACCTAG)” reads 0.233; that for “CCACTTCCTTGGGTTCTAACCTGTTGCCT (site CCACTCCCTAG)”, 0.176; that for “CCACTTCCTTGGGTTCTAACCTGTTGCCT (site CCACTGCCTAG)”, 0.0522.
Take “CCACTTCCTTGGGTTCTAACCTGTTGCCT (site CCACTTCCTAG)”: the “recombinant barcode read abundance (log10)” value was determined as 0.0928.
Turning to “CCAGAAGCTTGGGTTCTAACCTGTTGCGT (site CCAGAAGCTAC)”, the “recombinant barcode read abundance (log10)” value is 0.279.
Turning to “CCAGAAGCTTGGGTTCTAACCTGTTGCGT (site CCAGTAGCTCC)”, the “recombinant barcode read abundance (log10)” value was 0.434.
As to “CCAGCTGCTTGGGTTCTAACCTGTTGCCT (site CCAGCTGCTAG)”, the “recombinant barcode read abundance (log10)” value came to 1.11.
The result for “CCAGCTGCTTGGGTTCTAACCTGTTGCCT (site GTGCGCTCTGC)” reads 0.137; that for “CCAGGAGCTTGGGTTCTAACCTGTTGCAG (site CCAGGAGCTCT)”, 0.312.
